# Measured values as given in article PMC9350523 (Dose-Response, 2022).
# Ends that are not written are not given here.
# Experiments:
# [1] = tested on: glutamine synthetase 2 (GS2); settings: cited from earlier work
# BRAF = settings: cited from earlier work
# human PCNA = human PCNA (Homo sapiens, UniProt P12004); assay: Fluorescence anisotropy competition: displacement of 50 nM PL peptide from PCNA; format: binding; settings: for f (hormesis parameter): f not different from 0 (95% confidence interval), no significant hormesis
# [2] = GS2 from chloroplasts of Lotus corniculatus
# [3] = UNG2(a.a.1-19) competitor, .25 μM PCNA, hormetic curve
# Chain of human PCNA (P12004 whole entry): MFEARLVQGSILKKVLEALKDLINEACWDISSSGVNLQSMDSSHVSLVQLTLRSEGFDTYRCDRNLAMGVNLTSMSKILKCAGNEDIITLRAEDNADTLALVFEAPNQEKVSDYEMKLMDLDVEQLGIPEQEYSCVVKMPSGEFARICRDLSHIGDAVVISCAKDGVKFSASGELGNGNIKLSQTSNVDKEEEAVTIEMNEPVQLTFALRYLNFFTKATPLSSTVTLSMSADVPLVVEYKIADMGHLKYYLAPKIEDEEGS
compound,measurement,setting,value
CS(=N)(=O)CC[C@H](N)C(=O)O (stereo partly shown) [methionine sulfoximine],mode of inhibition,[1]; GS2,competitive with glutamate and a somewhat irreversible inhibitor
same,GS2 activity at high methionine sulfoximine doses,[1]; [2],completely inhibit the enzyme
same,GS2 activity at low methionine sulfoximine concentrations,[1]; [2],allosteric stimulatory effect on other subunits of the octamer
CC(C)(C)c1nc(-c2cccc(NS(=O)(=O)c3c(F)cccc3F)c2F)c(-c2ccnc(N)n2)s1 [dabrafenib],mode of inhibition,BRAF,competitive with ATP
MIGQKTLYSFFSPSPARKR [UNG2(a.a.1-19)],b (slope parameter),"human PCNA; UNG2(a.a.1-19) competitor, 1 μM PCNA, 50 nM PL peptide, hormetic curve",1.497
same,b (slope parameter),"human PCNA; UNG2(a.a.1-19) competitor, 1 μM PCNA, 50 nM PL peptide, standard curve",1.143
same,f (hormesis parameter),"human PCNA; UNG2(a.a.1-19) competitor, 1 μM PCNA, hormetic curve",.0044^ c
same,b (slope parameter),"human PCNA; UNG2(a.a.1-19) competitor, .25 μM PCNA, 50 nM PL peptide, hormetic curve",2.798
same,b (slope parameter),"human PCNA; UNG2(a.a.1-19) competitor, .25 μM PCNA, 50 nM PL peptide, standard curve",3.423
same,c (lower asymptote),human PCNA; [3],.0572
same,f (hormesis parameter),human PCNA; [3],.0013^ c
same,displacement / hormetic response,"human PCNA; UNG2(a.a.1-19), .25 and 1 μM PCNA, 50 nM PL peptide",displaced PL peptide from PCNA without a hormetic response
same,control: PL peptide anisotropy in the absence of PCNA,human PCNA; competitor included in the cuvette without PCNA,the fluorescence anisotropy of PL peptide was unchanged
